# Test results published in patent US20250340557A1, “PYRIMIDINE DERIVATIVE” (ASKA PHARMACEUTICAL CO., LTD., priority 2022, published 2025).
# Target: T1, human mPGES-1 (Homo sapiens, UniProt O14684)
# T1 construct: made in house; host or cells: COS-1 cells (transient transfection; microsomal fraction used as enzyme)
# T1 sequence (O14684 1-152): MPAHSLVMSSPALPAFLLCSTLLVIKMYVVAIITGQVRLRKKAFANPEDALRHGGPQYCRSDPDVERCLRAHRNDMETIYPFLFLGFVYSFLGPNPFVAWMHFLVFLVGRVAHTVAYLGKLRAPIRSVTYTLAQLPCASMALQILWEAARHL
# Assay: Test for mPGES-1 inhibitory activity (microsomal enzyme, PGE2 EIA)
# Format: biochemical
# Conditions: microsomes from COS-1 cells transfected with human mPGES-1 cDNA; substrate PGH2 1 μM; 4° C., 4 minutes; PGE2 measured by EIA; read-out: h mPGES1 IC50
# Protocol: Test Example 1: Test for mPGES-1 Inhibitory Activity
# Microsomes were prepared from COS-1 cells transiently transfected with a plasmid containing human mPGES-1 cDNA, and used as mPGES-1 enzyme. The mPGES-1 enzyme was diluted with a sodium phosphate buffer (pH 7.2) containing reduced glutathione (2.5 mM) and EDTA (1 mM), DMSO or a DMSO solution of a test compound (final concentration of DMSO was 2%) was added to the enzyme, and the mixture was preincubated at 4° C. for 15 minutes. Then, PGH2 (Prostaglandin H2) as the substrate was added at a final concentration of 1 μM to start the enzymatic reaction, and after incubation at 4° C. for 4 minutes, a solution of ferric chloride (25 mM) and citric acid (50 mM) was added to terminate the enzymatic reaction. Generated PGE2 (Prostaglandin E2) was measured by using Prostaglandin E2 Express EIA Kit (Cayman Chemical). IC50 values were determined by using a standard method.
row,IC50,SMILES
1,< 1 nM,"O=c1cc(C(F)(F)F)nc(-c2c(C(F)(F)F)ccc(CNC(=O)[C@H]3C[C@@H](OCc4cccc(Cl)c4)C3)c2F)[nH]1 (stereo in doubt) [Example 139, cis-3-[(3-chlorobenzyl)oxy]-N-{2-fluoro-3-[6-oxo-4-(trifluoromethyl)-1,6-dihydropyrimidin-2-yl]-4-(trifluoromethyl)benzyl}cyclobutane-1-carboxamide]"
2,37 nM,"O=C(NCc1ccc(C(F)(F)F)c(-c2nc(C(F)(F)F)cc(=O)[nH]2)c1F)C1CCN(c2ccc3nccn3n2)CC1 [Example 1, N-{2-fluoro-3-[6-oxo-4-(trifluoromethyl)-1,6-dihydropyrimidin-2-yl]-4-(trifluoromethyl)benzyl}-1-(imidazo[1,2-b]pyridazin-6-yl)piperidine-4-carboxamide]"
3,28.7 nM,"O=C(NCc1ccc(C(F)(F)F)c(-c2nc(C(F)(F)F)cc(=O)[nH]2)c1F)c1ccc(-c2ccc3nccn3n2)cc1 [Example 2, N-{2-fluoro-3-[6-oxo-4-(trifluoromethyl)-1,6-dihydropyrimidin-2-yl]-4-(trifluoromethyl)benzyl}-4-(imidazo[1,2-b]pyridazin-6-yl)benzamide]"
4,< 1 nM,"Cc1cnc2ccc(N3CCC(C(=O)NCc4ccc(C(F)(F)F)c(-c5nc(C(F)(F)F)cc(=O)[nH]5)c4F)CC3)nn12 [Example 3, N-{2-fluoro-3-[6-oxo-4-(trifluoromethyl)-1,6-dihydropyrimidin-2-yl]-4-(trifluoromethyl)benzyl}-1-(3-methylimidazo[1,2-b]pyridazin-6-yl)piperidine-4-carboxamide]"
5,< 1 nM,"Cc1cccc2ccc(N3CCC(C(=O)NCc4ccc(C(F)(F)F)c(-c5nc(C(F)(F)F)cc(=O)[nH]5)c4F)CC3)nc12 [Example 4, N-{2-fluoro-3-[6-oxo-4-(trifluoromethyl)-1,6-dihydropyrimidin-2-yl]-4-(trifluoromethyl)benzyl}-1-(8-methylquinolin-2-yl)piperidine-4-carboxamide]"
6,< 10 nM,"O=C(NCc1ccc(C(F)(F)F)c(-c2nc(C(F)(F)F)cc(=O)[nH]2)c1F)C1CCN(c2ccc3ccccc3n2)CC1 [Example 5, N-{2-fluoro-3-[6-oxo-4-(trifluoromethyl)-1,6-dihydropyrimidin-2-yl]-4-(trifluoromethyl)benzyl}-1-(quinolin-2-yl)piperidine-4-carboxamide]"
7,< 10 nM,"Cc1cccc2ccc(N3CC(C(=O)NCc4ccc(C(F)(F)F)c(-c5nc(C(F)(F)F)cc(=O)[nH]5)c4F)C3)nc12 [Example 6, N-{2-fluoro-3-[6-oxo-4-(trifluoromethyl)-1,6-dihydropyrimidin-2-yl]-4-(trifluoromethyl)benzyl}-1-(8-methylquinolin-2-yl)azetidine-3-carboxamide]"
8,< 1 nM,"Cc1cccc2ccc(N3CCC(C(=O)NCc4ccc(C(F)(F)F)c(-c5nccc(=O)[nH]5)c4F)CC3)nc12 [Example 7, N-[2-fluoro-3-(6-oxo-1,6-dihydropyrimidin-2-yl)-4-(trifluoromethyl)benzyl]-1-(8-methylquinolin-2-yl)piperidine-4-carboxamide]"
9,0.64 nM,"Cc1cccc2ccc(N3CCC(C(=O)NCc4ccc(Cl)c(-c5nccc(=O)[nH]5)c4)CC3)nc12 [Example 8, N-[4-chloro-3-(6-oxo-1,6-dihydropyrimidin-2-yl)benzyl]-1-(8-methylquinolin-2-yl)piperidine-4-carboxamide]"
10,< 10 nM,"Cc1cc(=O)[nH]c(-c2c(C(F)(F)F)ccc(CNC(=O)C3CCN(c4ccc5cccc(C)c5n4)CC3)c2F)n1 [Example 9, N-[2-fluoro-3-(4-methyl-6-oxo-1,6-dihydropyrimidin-2-yl)-4-(trifluoromethyl)benzyl]-1-(8-methylquinolin-2-yl)piperidine-4-carboxamide]"
11,< 1 nM,"CCc1cc(=O)[nH]c(-c2c(C(F)(F)F)ccc(CNC(=O)C3CCN(c4ccc5cccc(C)c5n4)CC3)c2F)n1 [Example 10, N-[3-(4-ethyl-6-oxo-1,6-dihydropyrimidin-2-yl)-2-fluoro-4-(trifluoromethyl)benzyl]-1-(8-methylquinolin-2-yl)piperidine-4-carboxamide]"
12,< 1 nM,"Cc1cccc2ccc(N3CCC(C(=O)NCc4ccc(C(F)(F)F)c(-c5nc(C(C)C)cc(=O)[nH]5)c4F)CC3)nc12 [Example 11, N-[2-fluoro-3-(4-isopropyl-6-oxo-1,6-dihydropyrimidin-2-yl)-4-(trifluoromethyl)benzyl]-1-(8-methylquinolin-2-yl)piperidine-4-carboxamide]"
13,2.1 nM,"Cc1cccc2ccc(N3CCC(C(=O)NCc4ccc(C(F)(F)F)c(-c5nc(C(F)F)cc(=O)[nH]5)c4F)CC3)nc12 [Example 12, N-{3-[4-(difluoromethyl)-6-oxo-1,6-dihydropyrimidin-2-yl]-2-fluoro-4-(trifluoromethyl)benzyl}-1-(8-methylquinolin-2-yl)piperidine-4-carboxamide]"
14,2.4 nM,"Cc1nc(-c2c(C(F)(F)F)ccc(CNC(=O)C3CCN(c4ccc5cccc(C)c5n4)CC3)c2F)[nH]c(=O)c1C [Example 13, N-[3-(4,5-dimethyl-6-oxo-1,6-dihydropyrimidin-2-yl)-2-fluoro-4-(trifluoromethyl)benzyl]-1-(8-methylquinolin-2-yl)piperidine-4-carboxamide]"
15,< 1 nM,"Cc1nc(-c2c(C(F)(F)F)ccc(CNC(=O)C3CCN(c4ccc5cccc(C)c5n4)CC3)c2F)[nH]c(=O)c1F [Example 14, N-[2-fluoro-3-(5-fluoro-4-methyl-6-oxo-1,6-dihydropyrimidin-2-yl)-4-(trifluoromethyl)benzyl]-1-(8-methylquinolin-2-yl)piperidine-4-carboxamide]"
16,< 1 nM,"Cc1cccc2ccc(N3CCC(F)(C(=O)NCc4ccc(C(F)(F)F)c(-c5nc(C(F)(F)F)cc(=O)[nH]5)c4F)CC3)nc12 [Example 15, 4-fluoro-N-{2-fluoro-3-[6-oxo-4-(trifluoromethyl)-1,6-dihydropyrimidin-2-yl]-4-(trifluoromethyl)benzyl}-1-(8-methylquinolin-2-yl)piperidine-4-carboxamide]"
17,< 10 nM,"Cc1cccc(N2CCC(C(=O)NCc3ccc(C(F)(F)F)c(-c4nc(C(F)(F)F)cc(=O)[nH]4)c3F)CC2)n1 [Example 17, N-{2-fluoro-3-[6-oxo-4-(trifluoromethyl)-1,6-dihydropyrimidin-2-yl]-4-(trifluoromethyl)benzyl}-1-(6-methylpyridin-2-yl)piperidine-4-carboxamide]"
18,< 1 nM,"O=C(NCc1ccc(C(F)(F)F)c(-c2nc(C(F)(F)F)cc(=O)[nH]2)c1F)C1CCN(c2ccccn2)CC1 [Example 19, N-{2-fluoro-3-[6-oxo-4-(trifluoromethyl)-1,6-dihydropyrimidin-2-yl]-4-(trifluoromethyl)benzyl}-1-(pyridin-2-yl)piperidine-4-carboxamide]"
19,< 1 nM,"O=C(NCc1ccc(C(F)(F)F)c(-c2nc(C(F)(F)F)cc(=O)[nH]2)c1F)C1CCN(c2ccc(C(F)(F)F)cn2)CC1 [Example 20, N-{2-fluoro-3-[6-oxo-4-(trifluoromethyl)-1,6-dihydropyrimidin-2-yl]-4-(trifluoromethyl)benzyl}-1-[5-(trifluoromethyl)pyridin-2-yl]piperidine-4-carboxamide]"
20,< 1 nM,"O=C(NCc1ccc(C(F)(F)F)c(-c2nc(C(F)(F)F)cc(=O)[nH]2)c1F)C1CCN(c2ccc(C(F)(F)F)nc2)CC1 [Example 21, N-{2-fluoro-3-[6-oxo-4-(trifluoromethyl)-1,6-dihydropyrimidin-2-yl]-4-(trifluoromethyl)benzyl}-1-[6-(trifluoromethyl)pyridin-3-yl]piperidine-4-carboxamide]"
21,4.9 nM,"O=C(NCc1ccc(C(F)(F)F)c(-c2nc(C(F)(F)F)cc(=O)[nH]2)c1F)C1CCN(c2cccc(C(F)(F)F)n2)CC1 [Example 22, N-{2-fluoro-3-[6-oxo-4-(trifluoromethyl)-1,6-dihydropyrimidin-2-yl]-4-(trifluoromethyl)benzyl}-1-[6-(trifluoromethyl)pyridin-2-yl]piperidine-4-carboxamide]"
22,4.8 nM,"CCc1cc(=O)[nH]c(-c2c(C(F)(F)F)ccc(CNC(=O)C3CCN(c4ccc(C(F)(F)F)cn4)CC3)c2F)n1 [Example 23, N-[3-(4-ethyl-6-oxo-1,6-dihydropyrimidin-2-yl)-2-fluoro-4-(trifluoromethyl)benzyl]-1-[5-(trifluoromethyl)pyridin-2-yl]piperidine-4-carboxamide]"
23,76 nM,"CCc1cc(=O)[nH]c(-c2c(C(F)(F)F)ccc(CNC(=O)C3CCN(c4cccc(C)n4)CC3)c2F)n1 [Example 24, N-[3-(4-ethyl-6-oxo-1,6-dihydropyrimidin-2-yl)-2-fluoro-4-(trifluoromethyl)benzyl]-1-(6-methylpyridin-2-yl)piperidine-4-carboxamide]"
24,< 1 nM,"O=C(NCc1ccc(C(F)(F)F)c(-c2nc(C(F)(F)F)cc(=O)[nH]2)c1F)C1CN(c2ccc(C(F)(F)F)cn2)C1 [Example 25, N-{2-fluoro-3-[6-oxo-4-(trifluoromethyl)-1,6-dihydropyrimidin-2-yl]-4-(trifluoromethyl)benzyl}-1-[5-(trifluoromethyl)pyridin-2-yl]azetidine-3-carboxamide]"
